Measurements taken from patent US6383528B1 (Yuyu International Co., Ltd., priority 1997, dated 2002).

What was measured:
[1] = tested on: mouse acute thrombus model; assay: Recovery rate in the mouse acute thrombus model (collagen + epinephrine); format: in vivo; settings: for Recovered Mouse, Number of Mouse: recovery within 15 minutes
Method: An Increase in Recovery Rate in the Mouse Acute Thrombus Model
One hour after the final administration of the regimen, the mixed solution containing collagen and epinephrine (collagen 1100 μg+epinephrine 110 μg/10 ml of saline solution/kg) was injected into the vein in the tail. The status of paralysis or death from pulmonary infarction, and the recovery therefrom were duly recorded.
As in the experiment above if the mixed solution comprising collagen and epinephrine was infected into the vein a large of amount of thrombus was generated shortly thereafter with the result of an occlusion in the pulmonary artery. Within one minute after the injection, almost every part of the body was in paralysis with the enlargement of a pupil. Dyspnea occurred followed by a seizure. Within 5 minutes, approximately 70˜80% of the mouse were deceased. As to the remainder, almost every mouse were dead within 15 minutes or in a continued paralysis.

[2] = tested on: thrombus formation at the cotton thread in the A-V Shunt; assay: Thrombus formation by arterio-venous shunt (A-V Shunt); format: in vivo; settings: female rats; for Thrombus Dry Condition Suppression Rate (%) / Thrombus Wet Condition Suppression Rate (%): vs control rats
Method: Thrombus Formation by Arterio-Venous Shunt (A-V Shunt hereinafter) and the Effects on the Platelet Aggregation […] Thereafter, Table 7 was tabulated with the measured weights of the thrombus formation at the cotton thread in the A-V Shunt. At this point, the weights of thrombus were measured in terms of the wet weight immediately after the experiment, and dry weight after complete drying.

[3] = tested on: platelet aggregation induced by ADP 3×10^−5M in PRP; assay: Ex vivo platelet aggregation in rats with A-V Shunt; settings: for Aggregation Rate (%) 2 Minutes / Aggregation Rate (%) 3 Minutes / Aggregation Rate (%) Maximum: control maximum set at 100
Method: The Effect on Platelet Aggregation in the A-V Shunt of Rats
After the administration of the same regimens used in Experiment 3 for the duration of 9 days, the weights of thrombus formations at the A-V Shunt were measured as the sample of the blood therefrom was collected for the purposes of studying the effect on the ex vivo platelet aggregation after the AV-Shunt. In particular, to the PRP (supernatant after the centrifuge of the blood sample for 10 minutes at 200×g) prepared from the respective blood sample, ADP 3×10^−5M, which is the platelets aggregation inducer, were added for the purposes of inducing aggregation.
In order to study the ex vivo platelet aggregation effect of the rats' blood without A-V Shunt, the concentration of ADP lower than 1×10^−5M was used. With the maximum platelet aggregation rate of rats in the control group with A-V Shunt set at 100, various aggregation rates were compared.

female rats = assay: Prolongation of the bleeding time (tail incision); format: in vivo; settings: for Bleeding Time: female rats
Method: Prolongation of the Bleeding Time
One hour after the final administration of the regimen, 250 mg/kg of ketamine was injected into muscle tissue for anesthesia. 2 mm from the tail end was incised with the razor blade, after which the blood therefrom was blotted with the filter paper at the interval of 5 second to the point of the hemorrhage stoppage.

leukocytes in rat [4] = assay: Leukocyte number and differential ratios after 16 weeks of administration; format: in vivo; settings: rats
Method: Bellefonte, Pa.). […] The changes due to the dosage amount and blending ratio were set as follows. […] On the other hand, one tablet of the Ginkgo biloba extract is 40 mg, 80 mg, 120 mg with a daily dosage of 120 mg to 240 mg. […] [table] […] After anesthesia, blood was collected through the abdominal aorta, and the number of white blood cells were counted using the Coulter Counter. Using the cytochemical dyeing method, the ratios of neutrophil, eosinophil, basophil, macrophage and lymphocytes were measured.

leukocytes in rat [5] = assay: Leukocyte number and differential ratios after 16 weeks of administration and 2 weeks of withdrawal; format: in vivo; settings: rats
Method: Rats were administered with the same regimens as in Experiment 6 for the duration of 16 weeks, and those with two weeks of withdrawal were separately maintained.

femur marrow cells [6] = assay: Number of bone marrow cells after 16 weeks of administration; format: in vivo; settings: rats, ticlopidine vs control, combinations vs ticlopidine alone
Method: A Change in the Number of Bone Marrow Cells after the Administration of the Pharmaceutical Composition for the Duration of 16 Weeks. […] Thereafter, the number of bone marrow cells was measured. In detail, for the purposes of measuring the numbers of the precursor cells of leukocytes, the femur part was incised with the elimination of the surrounding muscle tissues. Then, both sides of epiphysis were incised, from which approximately 2 cm of femur was obtained. […] After removing the supernatant, 1 ml of saline solution was added to the precipitated cell layer. […] Then, removing the supernatant once again, 0.5 ml of saline solution was added to the precipitated cell layer and mixed. The drop therefrom was added to the Cytometer, and the number of cells in the RRRRR 5 part (4 corners and the center) was counted. Using the following formula, the number of marrow cells were calculated: Counted Number×50×10×10^3=Number of white blood cell precursor/femur.

femur marrow cells [7] = assay: Number of bone marrow cells after 16 weeks of administration and 2 weeks of withdrawal; format: in vivo; settings: rats, 16 weeks then 2 weeks of withdrawal; combination 5:2
Method: The Changes in the Number of the Bone Marrow Cells after 16 Weeks of the Administration of the Pharmaceutical Composition, Followed by 2 Weeks of Withdrawal
Thereafter, the number of bone marrow cells at femur was measured.

femur marrow cells [8] = assay: Histological examination of the marrow cells after 16 weeks; format: in vivo; settings: rats, femur marrow histology ×400
Excerpt: Histological Examination of the Marrow Cells after the Administration of the Pharmaceutical Composition for 16 Weeks […] Thereafter, the marrow cells was histologically examined. […] The femur so extracted was decalcified with the decalcification solution and embedded with paraffin after the ordinary course of the histological process. The femur tissue so embedded with paraffin was sliced at a thickness of 4 μm, followed by hematoxylin and eosins. Thereafter, the slide was examined with the light microscope at 400×.

femur marrow cells [9] = assay: Histological examination of the marrow cells after 16 weeks and 2 weeks of withdrawal; format: in vivo; settings: rats, 16 weeks then 2 weeks of withdrawal, femur marrow histology
Excerpt: Histological Examination of the Marrow Cells after the Administration of the Pharmaceutical Composition for 16 Weeks, Followed by 2 Weeks of Withdrawal
Thereafter, the marrow cells were histolosically examined.

[10] = patients, first 3 months of treatment; cited from earlier work
[11] = tested on: platelet aggregation induced by 1×10^−5 M ADP; assay: Ex vivo platelet aggregation suppression effect; settings: female rats, ADP 1×10^−5 M
Excerpt: Ex Vivo Platelet Aggregation Suppression Effect
One hour after the final administration on the specimen, the rats were anesthetized. For preventing blood coagulation, the blood sample was collected using a syringe with the anti-coagulant, 3.8% Sodium Citrate solution. Thereafter, the effects oil the platelet aggregation induced by 1×10^−5 M ADP were studied.

[12] = 50 mg/kg/day for 9 days, 50 mg/kg/day
[13] = 50 mg/kg/day for 9 days, listed as Ticlopidine (T), 50 mg/kg/day
[14] = 100 mg/kg/day for 9 days, 100 mg/kg/day
[15] = 100 mg/kg/day for 9 days, listed as Ticlopidine (T), 100 mg/kg/day
[16] = 50 mg/kg/day for 9 days, listed as Ticlopidine (T)
[17] = 100 mg/kg/day for 9 days, listed as Ticlopidine (T)
[18] = 16 weeks P.O., ticlopidine 300 mg/kg/day alone or + Ginkgo extract 60/120/240 mg/kg/day, mean ± S.E.
[19] = 16 weeks P.O. then 2 weeks of withdrawal, 300 or 300 + 120 mg/kg/day, mean ± S.E.

## Clc1ccccc1CN1CCc2sccc2C1 [Ticlopidine, 5-[(2-chlorophenyl)methyl]-4,5,6,7-tetrahydrothieno[3,2-C]pyridine]
[1]; 50 mg/kg/day for 3 days
  Recovered Mouse, %: 38%
  Recovered Mouse, Number of Mouse: 6
[1]; 100 mg/kg/day for 3 days
  Recovered Mouse, %: 47%
  Recovered Mouse, Number of Mouse: 7
[2]; 50 mg/kg/day for 9 days
  Thrombus Dry Condition Weight: 9.53 mg
  Thrombus Wet Condition Weight: 35.03 mg
[2]; [12]
  Thrombus Dry Condition Suppression Rate (%): 25%
  Thrombus Wet Condition Suppression Rate (%): 26%
[2]; [13]
  Thrombus Dry Condition Suppression Rate (%): 25 ± 21%
  Thrombus Wet Condition Suppression Rate (%): 26 ± 19%
[2]; 100 mg/kg/day for 9 days
  Thrombus Dry Condition Weight: 8.78 mg
  Thrombus Wet Condition Weight: 30.45 mg
[2]; [14]
  Thrombus Dry Condition Suppression Rate (%): 31%
  Thrombus Wet Condition Suppression Rate (%): 36%
[2]; [15]
  Thrombus Dry Condition Suppression Rate (%): 31 ± 12%
  Thrombus Wet Condition Suppression Rate (%): 36 ±10%
[3]; 50 mg/kg/day for 9 days
  Time (Minute) Maximum (time to maximum aggregation): 1.8 min
  Time (Minute) Total (complete de-aggregation): 4.33 min
  Aggregation Rate (%) 2 Minutes: 74%
  Aggregation Rate (%) 3 Minutes: 45%
  Aggregation Rate (%) Maximum: 78%
[3]; [16]
  Aggregation Rate (%) 2 Minutes: 74.4%
  Aggregation Rate (%) 3 Minutes: 45.8%
  Aggregation Rate (%) Maximum: 78.2%
[3]; 100 mg/kg/day for 9 days
  Time (Minute) Maximum (time to maximum aggregation): 1.5 min
  Time (Minute) Total (complete de-aggregation): 3.4 min
  Aggregation Rate (%) 2 Minutes: 62%
  Aggregation Rate (%) 3 Minutes: 21%
  Aggregation Rate (%) Maximum: 72%
[3]; [17]
  Aggregation Rate (%) 2 Minutes: 62.9%
  Aggregation Rate (%) 3 Minutes: 21.4%
  Aggregation Rate (%) Maximum: 72.6%
Female rats; 50 mg/kg
  bleeding time increase from that in the control group: 1.5 times
Female rats; 100 mg/kg
  bleeding time increase from that in the control group: 2 times
Female rats; 50 mg/kg/day for 5 days
  Bleeding Time: 1546 ± 332 s
Female rats; 100 mg/kg/day for 5 days
  Bleeding Time: 2023 ± 872 s
Leukocytes in rat [4]; 16 weeks
  eosinophil, basophil, macrophage or lymphocyte compared with the control group: not significant differences
  white blood cells in the blood compared with the control group: slight tendency of a decrease
Leukocytes in rat [4]; 16 weeks P.O. in drinking water, ticlopidine 300 mg/kg/day alone or + Ginkgo extract 60 (5:1), 120 (5:2), 240 (5:4) mg/kg/day, mean ± S.E.
  Total Leukocyte (×10^3/μl): 9.3 ± 1.3 ×10^3/μl
Leukocytes in rat [4]; [18]
  Basophil (%): 1.7 ± 0.2%
  Eosinophil (%): 2.0 ± 0.4%
  Lymphocyte (%): 80.4 ± 1.6%
  Macrophage (%): 5.5 ± 0.8%
  Neutrophil (%): 10.5 ± 1.1 %
Leukocytes in rat [4]; 16 weeks P.O., ticlopidine 300 mg/kg/day alone or + Ginkgo extract 60/120/240 mg/kg/day, mean ± S.E., listed as ticlopidine
  Neutrophil (%): 10.5±1.1%
Leukocytes in rat [5]; [19]
  Basophil (%): 0.3 ± 0.1%
  Eosinophil (%): 2.7 ± 0.2%
  Lymphocyt (%): 77.8 ± 0.5%
  Macrophage (%): 3.5 ± 1.0%
  Neutrophil (%): 15.9 ± 1.7 %
Leukocytes in rat [5]; 16 weeks P.O. then 2 weeks of withdrawal, ticlopidine 300 mg/kg/day alone or + Ginkgo extract 120 mg/kg/day (5:2), mean ± S.E.
  Total Leukocyte (×10^3/μl): 10.3 ± 1.2 ×10^3/μl
Leukocytes in rat [5]; 16 weeks then 2 weeks of withdrawal
  number of neutrophil / leukocytes after withdrawal compared with the control group: normal recovery
Femur marrow cells [6]
  number of white blood cell precursor at marrow (femur marrow cells, FIG. 1), words: significant reduction
Femur marrow cells [7]
  number of marrow cells at femur (FIG. 2), words: recovered to the normal level
Femur marrow cells [8]
  Band-granulocyte: no change
  Cellularity (density of the marrow cells): malignant vacuolation
  Megakaryocyte: decreased
  Myelocyte: significantly decreased
Femur marrow cells [9]
  Megakaryocyte: increased almost to the point of the control group
[10]
  incidence rate of toxicity (neutropenia, agranulocytosis): 0.8%
[11]; 100 mg/kg/day for 3 days, 100 mg/kg/day
  Suppression Rate (%) (Avg + SD): 67%
[11]; 100 mg/kg/day for 3 days, listed as Ticlopidine (T), 100 mg/kg/day
  Suppression Rate (%) (Avg + SD): 67.06 ± 16.25 %
[11]; 200 mg/kg/day for 3 days, 200 mg/kg/day
  Suppression Rate (%) (Avg + SD): 98%
[11]; 200 mg/kg/day for 3 days, listed as Ticlopidine (T), 200 mg/kg/day
  Suppression Rate (%) (Avg + SD): 97.97 ± 4.53 %
